pIC50: −log10 of the molar value. Where two headings read alike, the source gives them in different places.
Key:
[1] = tested on: PSA; test: Prostate-specific antigen (PSA) assay, secreted PSA from the eGFP assay plates; format: cell-based, human
Description: 3. Prostate-specific antigen (PSA) assay: The evaluation of PSA levels secreted into the media was performed in parallel to the eGFP assay using the same plates. After cells were incubated for 3 days, 150 μl of the media was taken from each well, and added to 150 μl of PBS.

[2] = target: T1, androgen receptor (AR) (Homo sapiens, UniProt P10275, T878A); test: eGFP cellular AR transcription assay (LNCaP eGFP cells, LN-ARR2PB-eGFP); conditions: for IC50: eGFP IC50 (μM); for inhibition at 3 µM: LNCaP, read-out: % Inhibition (3 μM); for pIC50: read-out: eGFP IC50
T1 sequence (P10275 1-920 T878A): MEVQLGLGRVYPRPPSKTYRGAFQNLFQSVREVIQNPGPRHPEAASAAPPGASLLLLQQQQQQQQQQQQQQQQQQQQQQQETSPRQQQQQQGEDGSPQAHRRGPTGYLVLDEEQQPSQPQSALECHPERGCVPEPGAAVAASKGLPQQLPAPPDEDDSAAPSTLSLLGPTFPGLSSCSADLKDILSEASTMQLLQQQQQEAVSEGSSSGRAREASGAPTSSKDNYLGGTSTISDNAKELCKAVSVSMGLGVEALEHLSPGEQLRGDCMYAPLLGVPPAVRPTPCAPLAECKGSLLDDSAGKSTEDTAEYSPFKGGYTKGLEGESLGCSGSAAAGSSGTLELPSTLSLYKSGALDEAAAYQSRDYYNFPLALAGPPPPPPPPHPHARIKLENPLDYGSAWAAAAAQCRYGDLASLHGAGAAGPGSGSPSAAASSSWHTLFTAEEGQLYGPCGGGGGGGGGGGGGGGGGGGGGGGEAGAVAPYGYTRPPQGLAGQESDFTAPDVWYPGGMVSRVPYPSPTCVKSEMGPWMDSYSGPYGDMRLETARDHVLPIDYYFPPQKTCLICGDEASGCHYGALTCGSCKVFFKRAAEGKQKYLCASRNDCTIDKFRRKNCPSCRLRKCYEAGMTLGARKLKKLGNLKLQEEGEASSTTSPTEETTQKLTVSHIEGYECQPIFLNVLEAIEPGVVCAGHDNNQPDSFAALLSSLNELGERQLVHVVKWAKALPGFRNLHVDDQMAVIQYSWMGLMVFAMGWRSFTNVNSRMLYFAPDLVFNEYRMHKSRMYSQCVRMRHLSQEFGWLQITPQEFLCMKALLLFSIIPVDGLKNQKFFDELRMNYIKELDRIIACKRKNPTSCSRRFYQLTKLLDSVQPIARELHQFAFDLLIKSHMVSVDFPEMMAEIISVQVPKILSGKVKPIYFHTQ

pIC50 ([1]; Homo sapiens, secreted PSA)	IC50 ([2]; LNCaP eGFP cells) [µM]	pIC50 ([1]; Homo sapiens, Series 1)	inhibition at 3 µM [2] [%]	IC50 ([2]; Series 1) [µM]	Structure (SMILES)	other results
		6.29	100	0.522	c1ccc(-c2ccc(N3CCOCC3)s2)cc1 [Compound 14103]	
		6.05	111	1.43	N#Cc1ccc(-c2ccc(N3CCOCC3)s2)cc1 [Compound 14117]	
		5.11	64	6.89	Cc1[nH]c2ccccc2c1-c1csc(N2CCOCC2)n1 [Compound 14135]	
		5.89	133	1.44	c1ccc2c(-c3nc(-c4ccncc4)cs3)c[nH]c2c1 [Compound 14150]	
6.19	1.3				c1ccc2cc(-c3cscn3)ccc2c1 [Compound 14193]	
5.41	3.17		91.5		CNc1nc(-c2ccc3ccccc3c2)cs1 [Compound 14203]	
		6.16		1.02	c1ccc(-c2csc(N3CCCCC3)n2)cc1 [Compound 14233]	
		6.08	118	0.22	COc1ccccc1-c1csc(N2CCOCC2)n1 [Compound 14257]	
		6.96	115	0.24	Fc1ccc(-c2csc(N3CCOCC3)n2)cc1F [Compound 14264]	
		5.69	73.4	1.41	Nc1ccccc1-c1csc(N2CCOCC2)n1 [Compound 14273]	
		6.28		0.62	Cc1ccc(C)c(-c2csc(N3CCOCC3)n2)c1 [Compound 14293]	
5.98	0.23				Oc1cccc(-c2ccc3ccccc3n2)c1 [Compound 14300]	
		6.20	83.3	1.19	Fc1ccc(-c2csc(-c3ccncc3)n2)cc1 [Compound 14315]	
5.65	4.2		62		c1ccc2nc(-c3ccncc3)ccc2c1 [Compound 14320]	
7.24	0.068		91.7		Cc1ccc2sc(N3CCOCC3)nc2c1C [Compound 14332]	

The next lines start with the compound.

Structure (SMILES)	pIC50 ([1]; Homo sapiens, secreted PSA)	IC50 ([2]; LNCaP eGFP cells) [µM]	pIC50 ([1]; Homo sapiens, Series 1)	inhibition at 3 µM [2] [%]	IC50 ([2]; Series 1) [µM]	other results
CCOC(=O)c1c(C)[nH]c(C(=O)N[C@@H]2CCCc3ccccc32)c1C [Compound 14002]	5.45	11.8				
CC(=O)Nc1cccc(NC(=O)c2ccc(C)c(-n3cccc3)c2)c1 [Compound 14010]	4.72	32.5				
c1ccc(-c2csc(-c3ccccn3)n2)cc1 [Compound 14130]						pIC50 ([1]; Series 1): 5.07; pIC50 [2]: 5.13
c1cc(-c2csc(N3CCCCC3)n2)cs1 [Compound 14131]			6.27	117	0.82	
Nc1nc(-c2ccc3ccccc3c2)cs1 [Compound 14204]	4.97	9.16		67.2		
FC(F)(F)C1CN(c2nc(-c3ccccc3)cs2)CCO1 (stereo not drawn) [Compound 14250]						pIC50 ([1]; Series 1): 6.80; pIC50 [2]: 5.79
Fc1ccc(-c2csc(N3CCOCC3)n2)cc1 [Compound 14255]			6.39	44.9	0.66	
Fc1ccc(F)c(-c2csc(N3CCOCC3)n2)c1 [Compound 14262]						pIC50 ([1]; Series 1): 4.98; % Inhibition (3 μM) [2]: 96.6%
Clc1ccc(-c2csc(N3CCOCC3)n2)c(Cl)c1 [Compound 14263]						pIC50 ([1]; Series 1): 5.88; pIC50 [2]: 5.78
Clc1ccc(-c2csc(N3CCOCC3)n2)cc1Cl [Compound 14266]						pIC50 ([1]; Series 1): 5.53; % Inhibition (3 μM) [2]: 82.19%; pIC50 [2]: 5.48
CCc1sc(N2CCOCC2)nc1-c1ccccc1 [Compound 14285]						pIC50 ([1]; Series 1): 5.07; % Inhibition (3 μM) [2]: 52.34%; pIC50 [2]: 5.23
FC(F)(F)c1cccc(-c2csc(N3CCOCC3)n2)c1 [Compound 14292]			6.24		0.61	
Oc1cccc(N2Cc3ccccc3C2)c1 [Compound 14309]	6.30	0.75				

From US10011573B2, “Human androgen receptor DNA-binding domain (DBD) compounds as therapeutics and methods for their use” (The University of British Columbia, priority 2014, dated 2018)
